Experimental data from ChEMBL document CHEMBL4229450, “The synthetic chalcone derivative 2-hydroxy-3',5,5'-trimethoxychalcone induces unfolded protein response-mediated apoptosis in A549 lung cancer cells” (Bioorg Med Chem Lett, 2018).
Activity calls are given as the source filed them. The calls are words filed in the database; no cut-off is given here.

How the values were obtained:
A549 [1] = experiment: Induction of ER stress-activated unfolded protein response pathway in human A549 cells assessed as increase in ATF4 expression at 20 uM after 6 hrs by immunoblot analysis; assay type: functional, cell-based
A549 [2] = experiment: Induction of ER stress-activated unfolded protein response pathway in human A549 cells assessed as increase in IRE1alpha-mediated splicing of XBP1 mRNA by measuring increase in 540-base pair fragments at 20 uM after 12 hrs by RT-PCR analysis; assay type: functional, cell-based
A549 [3] = experiment: Induction of ER stress-activated unfolded protein response pathway in human A549 cells assessed as increase in IRE1alpha-mediated splicing of XBP1 mRNA by measuring increase in 279-/261-base pair fragments at 20 uM within 3 hrs by RT-PCR analysis; assay type: functional, cell-based
A549 [4] = experiment: Induction of ER stress-activated unfolded protein response pathway in human A549 cells assessed as increase in CHOP expression at 20 uM after 6 to 12 hrs by immunoblot analysis; assay type: functional, cell-based
A549 [5] = experiment: Induction of ER stress-activated unfolded protein response pathway-mediated apoptosis in human A549 cells assessed as increase in cleaved PARP expression at 20 uM pre-treated with stress inhibitor 4-PBA before compound addition by immunoblot analysis; assay type: functional, cell-based
NCI-H1299 = experiment: Anticlonogenic activity against human NCI-H1299 cells at 20 uM after 7 days by crystal violet staining based assay; assay type: functional, cell-based
A549 [6] = experiment: Induction of apoptosis in human A549 cells assessed as increase in cleaved PARP expression at 20 uM pre-treated with pan-caspase inhibitor zVAD-FMK fopr 30 mins before compound incubation for 12 hrs by immunoblot analysis; assay type: functional, cell-based
A549 [7] = experiment: Cell cycle arrest in human A549 cells assessed as accumulation at sub-G1 phase at 20 uM after 24 hrs by propidium iodide staining based flow cytometry (reference value: 2 to 2.3%); assay type: functional
A549 [8] = experiment: Induction of ER stress-activated unfolded protein response pathway in human A549 cells assessed as increase in Bim expression at 20 uM after 12 hrs by immunoblot analysis; assay type: functional, cell-based
A549 [9] = experiment: Cell cycle arrest in human A549 cells assessed as accumulation at S phase at 20 uM after 24 hrs by propidium iodide staining based flow cytometry (reference value: 25.6 to 26%); assay type: functional
A549 [10] = experiment: Induction of apoptosis in human A549 cells assessed as live cells at 20 uM after 24 hrs by Annexn V-FITC/propidium iodide staining based flow cytometry (reference value: 83%); assay type: functional
A549 [11] = experiment: Growth inhibition of human A549 cells assessed as cell viability at 20 uM after 24 hrs by CCK8 assay relative to control; assay type: functional; details: A549, 24 h, read-out: Activity
A549 [12] = experiment: Induction of apoptosis in human A549 cells assessed as increase in cleaved caspase-9 expression at 20 uM after 12 hrs by immunoblot analysis; assay type: functional, cell-based
MDA-MB-231 = experiment: Induction of apoptosis in human MDA-MB-231 cells assessed as increase in cleaved PARP expression at 20 uM after 12 hrs by immunoblot analysis; assay type: functional, cell-based
A549 [13] = experiment: Induction of apoptosis in human A549 cells assessed as early apoptotic cells at 20 uM after 24 hrs by Annexn V-FITC/propidium iodide staining based flow cytometry (reference value: 5%); assay type: functional
A549 [14] = experiment: Induction of ER stress-activated unfolded protein response pathway-mediated apoptosis in human A549 cells assessed as increase in cleaved caspase-7 expression at 20 uM pre-treated with stress inhibitor 4-PBA before compound addition by immunoblot analysis; assay type: functional, cell-based
A549 [15] = experiment: Cell cycle arrest in human A549 cells assessed as accumulation at G2/M phase at 20 uM after 24 hrs by propidium iodide staining based flow cytometry (reference value: 14.8 to 15%); assay type: functional
[16] = target: T1, Eukaryotic translation initiation factor 2-alpha kinase 3 (Homo sapiens) (UniProt Q9NZJ5); experiment: Induction of ER stress-activated unfolded protein response pathway in human A549 cells assessed as increase in PERK phosphorylation at Thr981 residue at 20 uM up to 6 hrs by immunoblot analysis; assay type: cell-based
T1 sequence (whole entry): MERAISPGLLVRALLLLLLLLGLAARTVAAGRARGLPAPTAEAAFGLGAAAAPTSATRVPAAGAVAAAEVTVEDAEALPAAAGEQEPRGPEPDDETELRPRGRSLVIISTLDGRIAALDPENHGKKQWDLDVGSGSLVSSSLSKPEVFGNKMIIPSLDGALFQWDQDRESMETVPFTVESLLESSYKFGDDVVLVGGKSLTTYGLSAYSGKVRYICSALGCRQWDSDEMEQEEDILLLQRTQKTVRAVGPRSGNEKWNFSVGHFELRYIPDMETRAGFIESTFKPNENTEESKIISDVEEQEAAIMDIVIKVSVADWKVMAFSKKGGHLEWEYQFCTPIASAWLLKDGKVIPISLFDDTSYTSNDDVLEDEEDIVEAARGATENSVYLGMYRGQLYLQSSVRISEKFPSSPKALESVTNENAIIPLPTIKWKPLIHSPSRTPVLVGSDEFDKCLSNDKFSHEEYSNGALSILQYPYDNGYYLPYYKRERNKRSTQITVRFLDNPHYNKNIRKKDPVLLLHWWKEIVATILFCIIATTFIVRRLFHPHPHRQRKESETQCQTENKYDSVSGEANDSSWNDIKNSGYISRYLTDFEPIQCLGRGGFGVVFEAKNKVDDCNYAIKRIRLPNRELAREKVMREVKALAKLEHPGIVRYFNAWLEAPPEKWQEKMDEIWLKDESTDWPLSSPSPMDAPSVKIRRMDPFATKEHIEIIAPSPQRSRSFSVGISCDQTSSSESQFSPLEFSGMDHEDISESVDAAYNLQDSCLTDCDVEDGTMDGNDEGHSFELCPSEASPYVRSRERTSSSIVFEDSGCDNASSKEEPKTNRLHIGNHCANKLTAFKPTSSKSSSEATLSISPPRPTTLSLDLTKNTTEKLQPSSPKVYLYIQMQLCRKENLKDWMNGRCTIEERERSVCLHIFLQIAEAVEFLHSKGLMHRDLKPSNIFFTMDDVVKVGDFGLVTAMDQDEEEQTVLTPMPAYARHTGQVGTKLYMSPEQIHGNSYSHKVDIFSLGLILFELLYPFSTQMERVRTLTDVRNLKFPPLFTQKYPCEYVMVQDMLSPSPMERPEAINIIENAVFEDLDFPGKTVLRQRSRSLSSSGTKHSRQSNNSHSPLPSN

A549 [17] = experiment: Induction of apoptosis in human A549 cells assessed as increase in cleaved caspase-7 expression at 20 uM pre-treated with pan-caspase inhibitor zVAD-FMK fopr 30 mins before compound incubation for 12 hrs by immunoblot analysis; assay type: functional, cell-based
A549 [18] = experiment: Induction of ER stress-activated unfolded protein response pathway in human A549 cells assessed as increase in IRE1alpha-mediated splicing of XBP1 mRNA by measuring increase in 540-base pair fragments at 20 uM after 24 hrs by RT-PCR analysis; assay type: functional, cell-based
A549 [19] = experiment: Induction of apoptosis in human A549 cells assessed as necrotic cells at 20 uM after 24 hrs by Annexn V-FITC/propidium iodide staining based flow cytometry (reference value: 10%); assay type: functional
A549 [20] = experiment: Induction of apoptosis in human A549 cells assessed as late apoptotic cells at 20 uM after 24 hrs by Annexn V-FITC/propidium iodide staining based flow cytometry (reference value: 3%); assay type: functional
A549 [21] = experiment: Induction of apoptosis in human A549 cells assessed as increase in cleaved caspase-7 expression at 20 uM after 12 hrs by immunoblot analysis; assay type: functional, cell-based
A549 [22] = experiment: Induction of apoptosis in human A549 cells assessed as increase in cleaved PARP expression at 20 uM after 12 hrs by immunoblot analysis; assay type: functional, cell-based
A549 [23] = experiment: Induction of ER stress-activated unfolded protein response pathway in human A549 cells harboring pFA-CHOP-GAL4/p-GAL4-DBD-Luc assessed as increase in CHOP trans-acting activity after 12 hrs by luciferase reporter gene assay; assay type: functional, cell-based
A549 [24] = experiment: Induction of apoptosis in human A549 cells assessed as disruption of microtubule organization at 20 uM after 18 hrs by Alexa Fluor-488/Hoechst 33258 staining based fluorescence microscopic method; assay type: functional, cell-based
A549 [25] = experiment: Growth inhibition of human A549 cells assessed as cell viability at 10 uM after 24 hrs by CCK8 assay relative to control; assay type: functional; details: A549, 24 h, read-out: Activity
MCF-12A = experiment: Induction of apoptosis in human MCF12A cells assessed as increase in cleaved PARP expression at 20 uM after 12 hrs by immunoblot analysis; assay type: cell-based
A549 [26] = experiment: Induction of ER stress-activated unfolded protein response pathway in human A549 cells assessed as accumulation of GRP78 protein level at 20 uM after 12 hrs by immunoblot analysis; assay type: functional, cell-based
A549 [27] = experiment: Induction of apoptosis in human A549 cells assessed as nuclear condensation and fragmentation at 20 uM after 18 hrs by Alexa Fluor-488/Hoechst 33258 staining based fluorescence microscopic method; assay type: functional, cell-based
A549 [28] = experiment: Induction of ER stress-activated unfolded protein response pathway in human A549 cells assessed as accumulation of IRE1alpha protein level at 20 uM after 12 hrs by immunoblot analysis; assay type: functional, cell-based
A549 [29] = experiment: Induction of ER stress-activated unfolded protein response pathway in human A549 cells assessed as increase in IRE1alpha-mediated splicing of XBP1 mRNA by measuring increase in 540-base pair fragments at 20 uM within 3 hrs by RT-PCR analysis; assay type: functional, cell-based
A549 [30] = experiment: Cell cycle arrest in human A549 cells assessed as accumulation at G1 phase at 20 uM after 24 hrs by propidium iodide staining based flow cytometry (reference value: 57%); assay type: functional
A549 [31] = experiment: Growth inhibition of human A549 cells assessed as cell viability at 5 uM after 24 hrs by CCK8 assay relative to control; assay type: functional; details: A549, 24 h, read-out: Activity
A549 [32] = experiment: Induction of ER stress-activated unfolded protein response pathway in human A549 cells assessed as increase in IRE1alpha-mediated splicing of XBP1 by measuring increase in XBP1 (56 kDa) level at 20 uM after 6 to 12 hrs by immunoblot analysis; assay type: functional, cell-based
NCI-H460 = experiment: Anticlonogenic activity against human NCI-H460 cells at 20 uM after 7 days by crystal violet staining based assay; assay type: functional, cell-based
A549 [33] = experiment: Anticlonogenic activity against human A549 cells at 20 uM after 7 days by crystal violet staining based assay; assay type: functional, cell-based
A549 [34] = experiment: Induction of apoptosis in human A549 cells assessed as increase in cleaved caspase-7 expression at 20 uM after 18 hrs by Alexa Fluor-488/Hoechst 33258 staining based fluorescence microscopic method; assay type: functional, cell-based

Structure (SMILES): COc1cc(/C=C/C(=O)c2cc(OC)ccc2O)cc(OC)c1
- Activity (A549 [1]): Active
- Activity (A549 [2]): Active
- Activity (A549 [3]): Active
- Activity (A549 [4]): Active
- Activity (A549 [5]): Active
- Activity (NCI-H1299): Active
- Activity (A549 [6]): inactive
- Activity (A549 [7]): 29.6 - 30%
- Activity (A549 [8]): Active
- Activity (A549 [9]): 26 - 26.5%
- Activity (A549 [10]): 56%
- viability at 20 µM (A549 [11]): 50.8%
- Activity (A549 [12]): Active
- Activity (MDA-MB-231): Active
- Activity (A549 [13]): 18%
- Activity (A549 [14]): Active
- Activity (A549 [15]): 14 - 14.1%
- Activity [16]: Active
- Activity (A549 [17]): inactive
- Activity (A549 [18]): inactive
- Activity (A549 [19]): 9%
- Activity (A549 [20]): 16%
- Activity (A549 [21]): Active
- Activity (A549 [22]): Active
- Activity (A549 [23]): Dose-dependent effect
- Activity (A549 [24]): Active
- viability at 10 µM (A549 [25]): 83.9%
- Activity (MCF-12A): Non-Toxic
- Activity (A549 [26]): Active
- Activity (A549 [27]): Active
- Activity (A549 [28]): Active
- Activity (A549 [29]): Active
- Activity (A549 [30]): 29.8 - 30%
- viability at 5 µM (A549 [31]): 90.1%
- Activity (A549 [32]): Active
- Activity (NCI-H460): Active
- Activity (A549 [33]): Active
- Activity (A549 [34]): Active
